Test results: publication PMC11721541 (Journal of Lipid Research, 2024)

Key:
human lipin 1β = molecular target: T1, human lipin 1β (Homo sapiens, UniProt Q14693); experiment: PAP assay, human lipin 1β; format: biochemical; details: unphosphorylated, from E. coli; PA 2.4 mol %
T1 construct: His6 (C); made in house; host or cells: E. coli Rosetta2(DE3)pLysS, plasmid pGH327 (pET-28b(+) derivative)
T1 sequence (Q14693 1-926 isoform Q14693-3): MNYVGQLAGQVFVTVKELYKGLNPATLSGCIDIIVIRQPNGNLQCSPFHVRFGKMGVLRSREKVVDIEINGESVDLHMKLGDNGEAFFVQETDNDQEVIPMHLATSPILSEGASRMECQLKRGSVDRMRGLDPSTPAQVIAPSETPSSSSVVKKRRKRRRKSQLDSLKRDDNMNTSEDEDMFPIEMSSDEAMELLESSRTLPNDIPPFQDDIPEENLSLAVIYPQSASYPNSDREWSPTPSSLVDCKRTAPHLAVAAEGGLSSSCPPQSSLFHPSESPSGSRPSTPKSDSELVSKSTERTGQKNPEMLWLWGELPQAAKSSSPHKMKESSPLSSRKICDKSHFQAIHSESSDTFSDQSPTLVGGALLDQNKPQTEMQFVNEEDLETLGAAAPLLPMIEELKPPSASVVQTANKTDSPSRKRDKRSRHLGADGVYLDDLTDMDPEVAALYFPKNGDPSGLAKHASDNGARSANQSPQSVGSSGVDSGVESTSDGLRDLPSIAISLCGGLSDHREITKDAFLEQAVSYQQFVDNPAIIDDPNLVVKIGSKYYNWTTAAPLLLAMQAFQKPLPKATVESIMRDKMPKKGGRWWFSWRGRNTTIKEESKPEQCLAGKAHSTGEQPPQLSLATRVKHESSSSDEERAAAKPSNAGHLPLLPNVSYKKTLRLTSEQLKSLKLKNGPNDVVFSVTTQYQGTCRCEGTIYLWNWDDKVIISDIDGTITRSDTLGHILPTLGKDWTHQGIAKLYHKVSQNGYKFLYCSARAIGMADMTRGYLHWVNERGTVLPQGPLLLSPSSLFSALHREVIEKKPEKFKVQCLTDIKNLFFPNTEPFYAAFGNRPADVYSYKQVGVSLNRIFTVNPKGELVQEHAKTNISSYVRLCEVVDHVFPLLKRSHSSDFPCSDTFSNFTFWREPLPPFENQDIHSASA
Protocol: (§1) PA dissolved in chloroform was dried in vacuo for 1 h. The dried PA was suspended in Triton X-100 to prepare Triton X-100/PA-mixed micelles ([88]). The mole percent of PA in the Triton X-100/PA-mixed micelle was calculated using the following formula: mol %PA = 100 × [PA (molar)]/([PA (molar)] + [Triton X-100 (molar)]). The total PA concentration in the Triton X-100/PA-mixed micelles was kept below 15 mol% to ensure that the structure of the PA-mixed micelles was similar to that of pure Triton X-100 micelles ([89], [90]).
(§2) PAP activity was measured at 30°C for 20 min by following the release of water-soluble ^32Pi from chloroform-soluble [^32P]PA (5,000–10,000 cpm/nmol) ([1], [88]). [^32P]PA was enzymatically synthesized from 1, 2-dioleoyl DAG and [γ-^32P]ATP with E. coli DAG kinase ([88]). Pah1-CC PAP activity was measured by following the formation of Pi from unlabeled PA using the malachite green-molybdate reagent ([4], [91]). The reaction mixture in a total volume of 100 μl contained 50 mM Tris-HCl (pH 7.5), 1 mM MgCl2, 10 mM 2-mercaptoethanol, 0.2 mM PA, 2 mM Triton X-100, and 50 ng purified enzyme. The enzyme assays were conducted in triplicate; the reactions were linear with time and protein concentration.
(§3) Each of the isoforms was heterologously expressed in E. coli, which allowed for their isolation in the unphosphorylated state ([4]).

human lipin 1γ = molecular target: T2, human lipin 1γ (Homo sapiens, UniProt Q14693); experiment: PAP assay, human lipin 1γ; format: biochemical; details: unphosphorylated, from E. coli; PA 2.4 mol %
T2 construct: His6 (C); made in house; host or cells: E. coli Rosetta2(DE3)pLysS, plasmid pGH321 (pET-28b(+) derivative)
T2 sequence (Q14693 1-916 isoform Q14693-4): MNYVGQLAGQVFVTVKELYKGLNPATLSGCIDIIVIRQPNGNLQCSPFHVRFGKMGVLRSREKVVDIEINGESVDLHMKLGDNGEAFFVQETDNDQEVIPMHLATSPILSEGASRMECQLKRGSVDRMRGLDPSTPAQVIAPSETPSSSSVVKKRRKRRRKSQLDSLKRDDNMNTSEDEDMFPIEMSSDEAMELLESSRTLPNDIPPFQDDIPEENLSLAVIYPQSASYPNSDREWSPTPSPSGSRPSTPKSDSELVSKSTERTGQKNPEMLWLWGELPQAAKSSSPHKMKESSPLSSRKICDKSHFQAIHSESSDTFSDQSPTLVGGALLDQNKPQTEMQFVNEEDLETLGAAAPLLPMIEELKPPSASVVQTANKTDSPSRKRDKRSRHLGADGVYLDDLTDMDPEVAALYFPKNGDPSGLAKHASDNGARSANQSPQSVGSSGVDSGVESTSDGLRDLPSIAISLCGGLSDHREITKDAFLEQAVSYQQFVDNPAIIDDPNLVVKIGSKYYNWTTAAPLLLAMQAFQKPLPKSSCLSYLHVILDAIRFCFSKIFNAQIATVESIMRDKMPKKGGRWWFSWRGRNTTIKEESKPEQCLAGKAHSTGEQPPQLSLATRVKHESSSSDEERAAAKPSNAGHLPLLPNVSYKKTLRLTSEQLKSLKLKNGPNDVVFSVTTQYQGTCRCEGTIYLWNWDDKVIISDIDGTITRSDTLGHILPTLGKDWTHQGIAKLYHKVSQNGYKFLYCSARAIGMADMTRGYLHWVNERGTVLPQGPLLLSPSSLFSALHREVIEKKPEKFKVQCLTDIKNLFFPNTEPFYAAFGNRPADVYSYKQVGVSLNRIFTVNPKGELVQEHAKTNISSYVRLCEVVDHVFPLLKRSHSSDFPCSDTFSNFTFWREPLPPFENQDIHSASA
Protocol: as §1, §2, §3

human lipin 1α = molecular target: T3, human lipin 1α (Homo sapiens, UniProt Q14693); experiment: PAP assay, human lipin 1α; format: biochemical; details: for IC50: unphosphorylated, from E. coli, PA 2.4 mol %
T3 construct: His6 (C); made in house; host or cells: E. coli Rosetta2(DE3)pLysS, plasmid pGH322 (pET-28b(+) derivative)
T3 sequence (Q14693 1-890): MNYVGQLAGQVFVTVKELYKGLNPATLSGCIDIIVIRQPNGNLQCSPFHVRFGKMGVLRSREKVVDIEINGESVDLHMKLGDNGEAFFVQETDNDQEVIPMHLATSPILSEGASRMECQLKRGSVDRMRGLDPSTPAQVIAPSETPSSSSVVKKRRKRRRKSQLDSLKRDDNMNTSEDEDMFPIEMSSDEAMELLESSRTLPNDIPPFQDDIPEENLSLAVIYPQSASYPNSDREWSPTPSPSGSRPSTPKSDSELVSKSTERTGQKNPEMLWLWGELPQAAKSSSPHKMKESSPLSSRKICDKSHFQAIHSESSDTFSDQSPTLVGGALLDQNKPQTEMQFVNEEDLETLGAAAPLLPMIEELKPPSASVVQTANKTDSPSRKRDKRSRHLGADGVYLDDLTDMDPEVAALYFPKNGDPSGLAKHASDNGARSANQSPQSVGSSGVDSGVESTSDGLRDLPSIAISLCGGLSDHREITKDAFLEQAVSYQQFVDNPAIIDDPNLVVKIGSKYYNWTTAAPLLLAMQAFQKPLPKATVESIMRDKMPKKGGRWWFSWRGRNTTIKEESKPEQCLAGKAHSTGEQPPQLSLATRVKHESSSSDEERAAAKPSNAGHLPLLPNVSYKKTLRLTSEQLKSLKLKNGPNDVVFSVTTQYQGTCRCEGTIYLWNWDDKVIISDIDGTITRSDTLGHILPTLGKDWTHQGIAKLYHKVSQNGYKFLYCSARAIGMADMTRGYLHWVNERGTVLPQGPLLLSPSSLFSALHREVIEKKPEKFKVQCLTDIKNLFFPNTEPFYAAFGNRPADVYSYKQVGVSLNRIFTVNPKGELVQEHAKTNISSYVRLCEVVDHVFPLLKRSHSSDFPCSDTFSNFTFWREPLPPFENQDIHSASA
Protocol: as §1, §2, §3

[1] = tested on: pah1Δ cells (SS1026) overexpressing Pah1 or Pah1-CC; format: cell-based, Saccharomyces cerevisiae
Protocol: (§4) The cell density was determined by measurement of A600 nm after a 48-h static incubation using a SpectraMax M2e microplate reader (Molecular Devices). […] The A600 nm readings were taken after 4 days of incubation.

pah1Δ mutant cells = format: cell-based, Saccharomyces cerevisiae
Protocol: as §4
For this experiment, we cultured the mutant in SC-0.2% glucose medium because of its growth defect in RPMI-0.2% glucose.
We reasoned that an overexpressed level of PAP activity would more readily rescue the inhibitory effect of the drug on the mutant growth.

[2] = tested on: WT S. cerevisiae cells (RS453); experiment: Lipid analysis ([2-14C]acetate labeling, TLC) in S. cerevisiae; details: 163 μM, 12 h, SC-0.2% glucose
Source text: Lipids were extracted ([97]) from ∼ 8 × 10^7 cells and analyzed by one-dimensional TLC with silica gel 60 plates using the solvent system containing hexane/diethyl ether/glacial acetic acid (40:10:1, v/v) ([98]). Radiolabeled lipids were visualized by phosphorimaging with a Storm 860 Molecular Imager (GE Healthcare) and quantified with ImageQuant software using a standard curve of [2–^14C]acetate. The amounts of TAG and phospholipids were normalized to total lipids on TLC plates.
The radiolabeling was performed in the SC medium owing to the difficulty of [2–^14C]acetate incorporation into cells grown in the RPMI medium.

HepG2 cells = experiment: Lipid analysis (TLC, charring) in HepG2 cells; format: cell-based, human; details: 10 μM, 18 h

| SMILES | IC50 (human lipin 1β) [µM] | IC50 (human lipin 1γ) [µM] | IC50 (human lipin 1α) [µM] | effect on growth of cells expressing Pah1 [1] | effect on growth of pah1Δ mutant (pah1Δ mutant cells) | decrease of TAG content [2] [fold] | increase of phospholipid content [2] [fold] | reduction in the TAG level (HepG2 cells) [fold] | growth of cells during the incubation period (HepG2 cells; vs DMSO vehicle) | IC50 values for lipin 1 isoforms lower than those of propranolol (human lipin 1α; lipin 1 α, β and γ isoforms together) [fold] |
| --- | --- | --- | --- | --- | --- | --- | --- | --- | --- | --- |
| CC(C)NCC(O)COc1cccc2ccccc12 (stereo not shown) [propranolol] | 271 | 227 | 226 |  |  |  |  |  |  |  |
| CN[C@H]1CC[C@@H](c2ccc(Cl)c(Cl)c2)c2ccccc21 [sertraline] | 108 | 143 | 103 | mild inhibition | severe reduction in growth | 2.2 | 1.2 | 2 | did not differ from that of the control | ~2 |
